Values quoted from earlier work as cited in patent US20110008495A1, “LIQUID DIETARY SUPPLEMENT COMPOSITION” (NAWGAN PRODUCTS, LLC, priority 2009, published 2011).

Columns and labels:
[1] = tested on: individuals diagnosed with mild to moderate Alzheimer's disease
[2] = tested on: diabetic animals; settings: long-term consumption in distilled water
[3] = midlife caffeine consumption

C[N+](C)(C)CCOP(=O)([O-])OC[C@H](O)CO [A-GPC, α-glyceryl phosphoryl choline]
absolute magnitude of change in overall cognitive ability (Mini Mental State Exam) ([1]; A-GPC over a 6 month period): offset a full year of typical decline | verbal memory and overall cognitive ability ([1]; A-GPC over a 6 month period vs patients not given A-GPC, 126 individuals): significant improvements

CC(C)=CCC/C(C)=C/C=C/C(C)=C/C=C/C(C)=C/C=C/C=C(C)/C=C/C=C(C)/C=C/C=C(\C)CCC=C(C)C [lycopene]
markers of inflammation and oxidation [2]: significantly decreased | memory performance [2]: significantly improved

Cn1c(=O)c2c(ncn2C)n(C)c1=O [caffeine]
risk of dementia later in life [3]: significantly reduces
